The values below are quoted from earlier work in patent US20120070594A1, “HYDROGENATED BISPHENOL-A-BASED POLYMERS AS SUBSTITUTES FOR BISPHENOL-A-BASED POLYMERS” (priority 2010, published 2012).

For the compound `CC(C)(c1ccc(O)cc1)c1ccc(O)cc1` [BPA, 4,4′-(Propane-2,2-diyl)diphenol, reference compound], the pKa (as a rule, the pH at which an ionisable group is half protonated) was 9.6.

`CC(C)(C1CCC(O)CC1)C1CCC(O)CC1` (stereo not drawn) [HBPA, 4-[2-(4-hydroxycyclohexyl)propan-2-yl]cyclohexan-1-ol]: the pKa was 17. Also, the “LD50 (rat)” value in the series on rat is recorded as 5660 mg per kg.
